From ChEMBL document CHEMBL2375236, “Strategic use of conformational bias and structure based design to identify potent JAK3 inhibitors with improved selectivity against the JAK family and the kinome” (Bioorg Med Chem Lett, 2013)
Converted amounts (≈) assume the structure as drawn.

Legend:
[1] = target: T1, Tyrosine-protein kinase JAK1 (Homo sapiens, UniProt P23458)
[2] = target: T2, Tyrosine-protein kinase JAK3 (Homo sapiens, UniProt P52333)
T2 sequence (P52333 whole entry): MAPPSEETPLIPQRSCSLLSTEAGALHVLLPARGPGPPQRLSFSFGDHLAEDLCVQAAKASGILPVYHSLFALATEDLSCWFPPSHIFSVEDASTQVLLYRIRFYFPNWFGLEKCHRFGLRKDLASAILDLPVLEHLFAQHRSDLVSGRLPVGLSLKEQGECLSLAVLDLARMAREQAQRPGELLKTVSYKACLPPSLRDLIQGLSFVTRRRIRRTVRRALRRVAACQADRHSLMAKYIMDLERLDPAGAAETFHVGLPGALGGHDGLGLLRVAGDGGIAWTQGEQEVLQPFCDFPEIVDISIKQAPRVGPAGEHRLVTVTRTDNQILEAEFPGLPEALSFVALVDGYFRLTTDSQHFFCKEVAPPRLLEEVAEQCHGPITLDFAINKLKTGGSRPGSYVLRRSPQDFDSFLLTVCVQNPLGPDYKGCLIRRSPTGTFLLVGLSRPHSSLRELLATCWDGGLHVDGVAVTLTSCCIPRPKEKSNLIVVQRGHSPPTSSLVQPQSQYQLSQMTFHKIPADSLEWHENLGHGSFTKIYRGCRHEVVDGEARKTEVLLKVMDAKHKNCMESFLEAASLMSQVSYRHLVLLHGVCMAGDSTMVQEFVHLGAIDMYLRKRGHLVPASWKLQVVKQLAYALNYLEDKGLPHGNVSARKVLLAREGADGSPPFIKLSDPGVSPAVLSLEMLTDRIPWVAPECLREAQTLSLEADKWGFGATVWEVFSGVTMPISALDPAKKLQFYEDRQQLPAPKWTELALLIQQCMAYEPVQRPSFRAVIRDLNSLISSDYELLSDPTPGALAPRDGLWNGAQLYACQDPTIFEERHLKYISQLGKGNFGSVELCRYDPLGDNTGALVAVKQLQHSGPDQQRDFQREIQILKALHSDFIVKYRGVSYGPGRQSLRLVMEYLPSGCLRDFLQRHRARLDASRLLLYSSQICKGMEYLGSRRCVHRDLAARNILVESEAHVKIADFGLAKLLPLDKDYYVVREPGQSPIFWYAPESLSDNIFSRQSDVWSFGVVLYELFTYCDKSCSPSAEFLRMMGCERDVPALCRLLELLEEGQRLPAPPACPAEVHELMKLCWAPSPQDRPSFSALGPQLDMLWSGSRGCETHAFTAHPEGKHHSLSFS

[3] = target: Non-receptor tyrosine-protein kinase TYK2 (Homo sapiens, UniProt P29597)
Description: Binding affinity to TYK2 (unknown origin) by ligand displacement assay

[4] = target: T1, Tyrosine-protein kinase JAK1; remark: listed apart in the source
Description: Binding affinity to JAK1 (unknown origin) by ligand displacement assay

SMILES	solubility (physchem) [µg/mL]	IC50 [1] [nM]	also measured
C[C@@H](NC(=O)c1c[nH]c2ncc(C3CC3)nc12)C(=O)N1CC(C#N)C1	277 (≈ 819 µM)	–	–
CCn1cc(-c2cnc3[nH]cc(C(=O)N[C@H](C)C(=O)N4CC(C#N)C4)c3n2)cn1	366 (≈ 933 µM)	23	IC50 [2]: 5.2 nM
C[C@@H](NC(=O)c1c[nH]c2ncc(-c3nn(C)c4cc(Cl)ccc34)nc12)C(=O)N1CC(C#N)C1	< 1	31	Kd [3]: 350 nM; Kd [4]: 73 nM
C[C@@H](NC(=O)c1c[nH]c2ncc(-c3nn(C)c4ccc(Cl)cc34)nc12)C(=O)N1CC(C#N)C1	–	61	–
C[C@@H](NC(=O)c1c[nH]c2ncc(-c3nn(C)c4ccccc34)nc12)C(=O)N1CC(C#N)C1	–	22	–
C[C@@H](NC(=O)c1c[nH]c2ncc(-c3nn(C)c4cc(F)ccc34)nc12)C(=O)N1CC(C#N)C1	< 1	17	–
C[C@@H](NC(=O)c1c[nH]c2ncc(-c3nn(C)c4cc(C#N)ccc34)nc12)C(=O)N1CC(C#N)C1	< 1	51	–
COc1ccc2c(-c3cnc4[nH]cc(C(=O)N[C@H](C)C(=O)N5CC(C#N)C5)c4n3)nn(C)c2c1	< 1	38	–
C[C@@H](NC(=O)c1c[nH]c2ncc(-c3nn(C)c4cc(Cl)cc(F)c34)nc12)C(=O)N1CC(C#N)C1	< 1	–	–
C[C@@H](NC(=O)c1c[nH]c2ncc(-n3ncc4cc(Cl)ccc43)nc12)C(=O)N1CC(C#N)C1	< 1	370	–
C[C@@H](NC(=O)c1c[nH]c2ncc(-c3ncn4cc(F)ccc34)nc12)C(=O)N1CC(C#N)C1	39 (≈ 90.2 µM)	16	–
C[C@@H](NC(=O)c1c[nH]c2ncc(-c3ncn4cc(F)cc(F)c34)nc12)C(=O)N1CC(C#N)C1	31 (≈ 68.8 µM)	73	–
C[C@@H](NC(=O)c1c[nH]c2ncc(-c3cnc4cc(Cl)ccn34)nc12)C(=O)N1CC(C#N)C1	–	61	–

Now from value to compound, other results behind:

solubility (physchem) [µg/mL]	IC50 [1] [nM]	SMILES	also measured
–	7.4	COc1cc(-c2cnc3[nH]cc(C(=O)N[C@H](C)C(=O)N4CC(C#N)C4)c3n2)cc(OC)c1OC	–
< 1	1	C[C@@H](NC(=O)c1c[nH]c2ncc(-c3cn(C)c4cc(Cl)ccc34)nc12)C(=O)N1CC(C#N)C1	–
–	10	C[C@@H](NC(=O)c1c[nH]c2ncc(-c3nn(C)c4cc(C5CC5)ccc34)nc12)C(=O)N1CC(C#N)C1	–
–	12	C[C@@H](NC(=O)c1c[nH]c2ncc(-c3nn(C)c4cc(C(C)(C)C)ccc34)nc12)C(=O)N1CC(C#N)C1	–
< 1	4.6	CC[C@@H](NC(=O)c1c[nH]c2ncc(-c3nn(C)c4cc(Cl)ccc34)nc12)C(=O)N1CC(C#N)C1	–
–	0.8	Cn1nc(-c2cnc3[nH]cc(C(=O)N[C@@H](C(=O)N4CC(C#N)C4)C4CC4)c3n2)c2ccc(Cl)cc21	–
–	5.5	Cn1nc(-c2cnc3[nH]cc(C(=O)N[C@@H](C(=O)N4CC(C#N)C4)C(C)(C)C)c3n2)c2ccc(Cl)cc21	–
